Reference: US9936701B2, “Herbicidal compounds” (Syngenta Participations AG, priority 2013, dated 2018)

tested on: a variety of test species; test: Post-emergence herbicidal activity (glasshouse, sprayed after 8 days cultivation, evaluated after 13 days); assay type: in vivo; parameters: key: 5=total damage to plant; 0=no damage to plant; settings: Abutilon theophrasti, rate 1000 g/Ha, scale 0-5
How it was run: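 Pot-grown seedlings sprayed 8 days after sowing with active ingredient in acetone/water (50:50) plus 0.5% Tween 20. Glasshouse at 24/16 °C day/night, 14 h light, 65% humidity, watered twice daily. Damage scored after 13 days on a 0–5 scale (5 = total damage, 0 = none).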

| Structure (SMILES) | ABUTH (Abutilon theophrasti) damage score, application post-emergence |
| --- | --- |
| CCC(C)(CC)c1onc(N2C(=O)C(Cl)=C(C)C2O)c1C#N (stereo not shown) [A45] | 5 |
| CCCC(C)(C)c1onc(N2C(=O)C(Cl)=C(C)C2O)c1C#N (stereo not shown) [A46] | 5 |
| CCCCC(C)(C)c1onc(N2C(=O)C(Cl)=C(C)C2O)c1C#N (stereo not shown) [A47] | 5 |
| CCC(C)c1onc(N2C(=O)C(Cl)=C(C)C2O)c1C#N (stereo not shown) [A49] | 5 |

same assay, conditions: Alopecurus myosuroides, rate 1000 g/Ha, scale 0-5

| Structure (SMILES) | ALOMY (Alopecurus myosuroides) damage score, application post-emergence |
| --- | --- |
| CCC(C)(CC)c1onc(N2C(=O)C(Cl)=C(C)C2O)c1C#N (stereo not shown) [A45] | 5 |
| CCCC(C)(C)c1onc(N2C(=O)C(Cl)=C(C)C2O)c1C#N (stereo not shown) [A46] | 5 |
| CCCCC(C)(C)c1onc(N2C(=O)C(Cl)=C(C)C2O)c1C#N (stereo not shown) [A47] | 5 |
| CCC(C)c1onc(N2C(=O)C(Cl)=C(C)C2O)c1C#N (stereo not shown) [A49] | 4 |

same assay, conditions: Amaranthus retroflexus, rate 1000 g/Ha, scale 0-5

| Structure (SMILES) | AMARE (Amaranthus retroflexus) damage score, application post-emergence |
| --- | --- |
| CCC(C)(CC)c1onc(N2C(=O)C(Cl)=C(C)C2O)c1C#N (stereo not shown) [A45] | 5 |
| CCCC(C)(C)c1onc(N2C(=O)C(Cl)=C(C)C2O)c1C#N (stereo not shown) [A46] | 5 |
| CCCCC(C)(C)c1onc(N2C(=O)C(Cl)=C(C)C2O)c1C#N (stereo not shown) [A47] | 5 |
| CCC(C)c1onc(N2C(=O)C(Cl)=C(C)C2O)c1C#N (stereo not shown) [A49] | 5 |

same assay, conditions: Echinochloa crus-galli, rate 1000 g/Ha, scale 0-5

| Structure (SMILES) | ECHCG (Echinochloa crus-galli) damage score, application post-emergence |
| --- | --- |
| CCC(C)(CC)c1onc(N2C(=O)C(Cl)=C(C)C2O)c1C#N (stereo not shown) [A45] | 5 |
| CCCC(C)(C)c1onc(N2C(=O)C(Cl)=C(C)C2O)c1C#N (stereo not shown) [A46] | 5 |
| CCCCC(C)(C)c1onc(N2C(=O)C(Cl)=C(C)C2O)c1C#N (stereo not shown) [A47] | 5 |
| CCC(C)c1onc(N2C(=O)C(Cl)=C(C)C2O)c1C#N (stereo not shown) [A49] | 5 |

same assay, conditions: Setaria faberi, rate 1000 g/Ha, scale 0-5

| Structure (SMILES) | SETFA (Setaria faberi) damage score, application post-emergence |
| --- | --- |
| CCC(C)(CC)c1onc(N2C(=O)C(Cl)=C(C)C2O)c1C#N (stereo not shown) [A45] | 5 |
| CCCC(C)(C)c1onc(N2C(=O)C(Cl)=C(C)C2O)c1C#N (stereo not shown) [A46] | 5 |
| CCCCC(C)(C)c1onc(N2C(=O)C(Cl)=C(C)C2O)c1C#N (stereo not shown) [A47] | 5 |
| CCC(C)c1onc(N2C(=O)C(Cl)=C(C)C2O)c1C#N (stereo not shown) [A49] | 5 |

same assay, conditions: Zea mays, rate 1000 g/Ha, scale 0-5

| Structure (SMILES) | ZEAMX (Zea mays) damage score, application post-emergence |
| --- | --- |
| CCC(C)(CC)c1onc(N2C(=O)C(Cl)=C(C)C2O)c1C#N (stereo not shown) [A45] | 3 |
| CCCC(C)(C)c1onc(N2C(=O)C(Cl)=C(C)C2O)c1C#N (stereo not shown) [A46] | 3 |
| CCCCC(C)(C)c1onc(N2C(=O)C(Cl)=C(C)C2O)c1C#N (stereo not shown) [A47] | 2 |
| CCC(C)c1onc(N2C(=O)C(Cl)=C(C)C2O)c1C#N (stereo not shown) [A49] | 2 |

tested on: not given; test: not given; settings: not given

| Structure (SMILES) | melting point |
| --- | --- |
| CCC(C)(CC)c1onc(N2C(=O)C(Cl)=C(C)C2O)c1C#N (stereo not shown) [A45] | 129 to 130 °C |
| CCCC(C)(C)c1onc(N2C(=O)C(Cl)=C(C)C2O)c1C#N (stereo not shown) [A46] | 113 to 115 °C |
| CCCCC(C)(C)c1onc(N2C(=O)C(Cl)=C(C)C2O)c1C#N (stereo not shown) [A47] | 99 to 101 °C |
| CCC(C)c1onc(N2C(=O)C(Cl)=C(C)C2O)c1C#N (stereo not shown) [A49] | 107 to 109 °C |

tested on: a variety of test species; test: Pre-emergence herbicidal activity (glasshouse, sprayed one day after sowing, evaluated after 13 days); assay type: in vivo; parameters: key: 5=total damage to plant; 0=no damage to plant; settings: ABUTH, application pre-emergence, rate 1000 g/Ha, scale 0-5
How it was run: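 Seeds sown in standard soil in pots, sprayed one day later (pre-emergence) with aqueous solution from acetone/water (50:50) formulation with 0.5% Tween 20. Glasshouse at 24/16 °C day/night, 14 h light, 65% humidity, watered twice daily. Damage scored after 13 days, 0 (none) to 5 (total).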

| Structure (SMILES) | Pre-emergence herbicidal damage score, ABUTH |
| --- | --- |
| CCC(C)(CC)c1onc(N2C(=O)C(Cl)=C(C)C2O)c1C#N (stereo not shown) [A45] | 4 |
| CCCC(C)(C)c1onc(N2C(=O)C(Cl)=C(C)C2O)c1C#N (stereo not shown) [A46] | 2 |
| CCCCC(C)(C)c1onc(N2C(=O)C(Cl)=C(C)C2O)c1C#N (stereo not shown) [A47] | 0 |
| CCC(C)c1onc(N2C(=O)C(Cl)=C(C)C2O)c1C#N (stereo not shown) [A49] | 5 |

same assay, conditions: ALOMY, application pre-emergence, rate 1000 g/Ha, scale 0-5

| Structure (SMILES) | Pre-emergence herbicidal damage score, ALOMY |
| --- | --- |
| CCC(C)(CC)c1onc(N2C(=O)C(Cl)=C(C)C2O)c1C#N (stereo not shown) [A45] | 3 |
| CCCC(C)(C)c1onc(N2C(=O)C(Cl)=C(C)C2O)c1C#N (stereo not shown) [A46] | 4 |
| CCCCC(C)(C)c1onc(N2C(=O)C(Cl)=C(C)C2O)c1C#N (stereo not shown) [A47] | 2 |
| CCC(C)c1onc(N2C(=O)C(Cl)=C(C)C2O)c1C#N (stereo not shown) [A49] | 3 |

same assay, conditions: AMARE, application pre-emergence, rate 1000 g/Ha, scale 0-5

| Structure (SMILES) | Pre-emergence herbicidal damage score, AMARE |
| --- | --- |
| CCC(C)(CC)c1onc(N2C(=O)C(Cl)=C(C)C2O)c1C#N (stereo not shown) [A45] | 5 |
| CCCC(C)(C)c1onc(N2C(=O)C(Cl)=C(C)C2O)c1C#N (stereo not shown) [A46] | 5 |
| CCCCC(C)(C)c1onc(N2C(=O)C(Cl)=C(C)C2O)c1C#N (stereo not shown) [A47] | 5 |
| CCC(C)c1onc(N2C(=O)C(Cl)=C(C)C2O)c1C#N (stereo not shown) [A49] | 5 |

same assay, conditions: ECHCG, application pre-emergence, rate 1000 g/Ha, scale 0-5

| Structure (SMILES) | Pre-emergence herbicidal damage score, ECHCG |
| --- | --- |
| CCC(C)(CC)c1onc(N2C(=O)C(Cl)=C(C)C2O)c1C#N (stereo not shown) [A45] | 3 |
| CCCC(C)(C)c1onc(N2C(=O)C(Cl)=C(C)C2O)c1C#N (stereo not shown) [A46] | 4 |
| CCCCC(C)(C)c1onc(N2C(=O)C(Cl)=C(C)C2O)c1C#N (stereo not shown) [A47] | 2 |
| CCC(C)c1onc(N2C(=O)C(Cl)=C(C)C2O)c1C#N (stereo not shown) [A49] | 4 |

same assay, conditions: SETFA, application pre-emergence, rate 1000 g/Ha, scale 0-5

| Structure (SMILES) | Pre-emergence herbicidal damage score, SETFA |
| --- | --- |
| CCC(C)(CC)c1onc(N2C(=O)C(Cl)=C(C)C2O)c1C#N (stereo not shown) [A45] | 4 |
| CCCC(C)(C)c1onc(N2C(=O)C(Cl)=C(C)C2O)c1C#N (stereo not shown) [A46] | 4 |
| CCCCC(C)(C)c1onc(N2C(=O)C(Cl)=C(C)C2O)c1C#N (stereo not shown) [A47] | 1 |
| CCC(C)c1onc(N2C(=O)C(Cl)=C(C)C2O)c1C#N (stereo not shown) [A49] | 5 |

same assay, conditions: ZEAMX, application pre-emergence, rate 1000 g/Ha, scale 0-5

| Structure (SMILES) | Pre-emergence herbicidal damage score, ZEAMX |
| --- | --- |
| CCC(C)(CC)c1onc(N2C(=O)C(Cl)=C(C)C2O)c1C#N (stereo not shown) [A45] | 2 |
| CCCC(C)(C)c1onc(N2C(=O)C(Cl)=C(C)C2O)c1C#N (stereo not shown) [A46] | 3 |
| CCCCC(C)(C)c1onc(N2C(=O)C(Cl)=C(C)C2O)c1C#N (stereo not shown) [A47] | 2 |
| CCC(C)c1onc(N2C(=O)C(Cl)=C(C)C2O)c1C#N (stereo not shown) [A49] | 1 |
